Patent US7109174B2, “Anticonvulsant derivatives useful for preventing the development of type II diabetes mellitus and syndrome X” (Ortho-McNeil Pharmaceutical, Inc., priority 2000, dated 2006)

Key:
[1] = system: Female db/db mice; assay: Oral glucose tolerance test (fasted) in female db/db mice after 11 days oral dosing; format: in vivo; conditions: for Oral Glucose Tolerance Test (fasted) Plasma Glucose: ± sem
Method: Female db/db mice (C57BLK S/J-m^+/^+ Lepr^db Jackson Labs, Bar Harbor, Me.), 7–8 weeks of age, were housed four per cage in solid-bottomed shoe box cages. Room temperature was maintained at 68–72° F. and humidity at 50–65%. Room lighting was on a 12-hour light/12-hour dark cycle. The mice were maintained on NIH Rat and Mouse/Auto 6F reduced fat diet #5K52 (PMI Nutrition Int'l Inc.). Food and water were supplied ad libitum.
Test compound and vehicle were dosed orally and prepared as suspensions in 0.5% hydroxypropylmethylcellulose (Dow Chemical, Midland, Mich.). The dosing volume was 10 mL/kg of body weight.
Different groups of female db/db mice (7–8/group) were orally gavaged daily for 11 days with either 0.5% methylcellulose in dH2O (vehicle), topiramate at 30 or 100 mg/kg/day or 2,3:4,5-bis-O-(1-methylethylidene)-β-L-fructopyranose sulfamate (hereinafter referred to as Compound V) at 30 or 100 mg/kg/day. On day 10, the animals were fasted for 20 hours before being tested for oral glucose tolerance (OGT). On day 11, four hours after the final dose for each group, an oral glucose tolerance test (OGTT) was performed by oral glucose administration of 2 g/kg. Animals were bled through tail clip at 0 (before glucose), 30, 60 and 120 min after glucose challenge. The blood samples were collected into heparinized CB microvettes and then put on ice. The plasma samples will be assayed for plasma glucose determination by using SIGMA DIAGNOSTICS Trinder reagent (Sigma, St. Louis, Mo.). Statistical analysis was performed using the program Instat (Graphpad, Monrovia, Calif.) and performing one-way ANOVA with a Dunnett's multiple comparison test.
Following the above described procedure, the effect of topiramate and compound V on oral glucose tolerance in female db/db mice, 7 mice/group, was determined, with results as listed in Table 9. The abbreviation N represents the number of animals per study group.

[2] = system: male Zucker diabetic fatty (ZDF/Gmi-Fa) rats; assay: Plasma glucose, triglycerides and body weight change in male Zucker diabetic fatty rats, orally dosed for 14 days; format: in vivo; conditions: for Body Weight Change / Plasma Glucose Levels Plasma Conc. / Plasma Triglyceride Levels Plasma Conc.: ± sem
Method: Six week old male Zucker diabetic fatty (ZDF/Gmi-Fa) rats were purchased from Genetic Models, Inc. Indianapolis, Ind. The rats were housed in groups of four in hanging metal cages, at an ambient temperature of 68–72° F., on a 12 hour-12 hour light-dark schedule and given access to water and food ad libitum. Lean rats (ZDF/GMI−+/+or +/fa) were used as normal, non-diabetic controls. The diet was comprised of LabDiet 5008 breeding formula (PMI Nutrition Int'l, Brentwood, Mo.). The vehicle, used as a reference and for test compounds, was 0.5% methylcellulose dissolved in water. The compounds were either fully dissolved or uniformly suspended in the vehicle when administered to the […]. The rats were randomly separated into four groups of eight. The groups were as follows: one vehicle control group and three groups that each received one of three doses of TPM (30, 100, or 300 mg/kg, respectively). Topiramate or vehicle was administered orally by gavage once a day, for 14 consecutive days, during the 8th hour of the light portion of the light-dark cycle. At the start of the study, the rats were bled through a tail vein and plasma glucose and triglyceride levels were determined. Between 18 and 24 hours after the last dose was administered, blood samples were again taken via tail clip on day 1 (fed animals) and day 14 (fed animals). The plasma was collected into 2 mL heparinized snap-top polypropylene tubes, then placed in ice. Plasma was separated from blood cells by centrifugation (20 minutes at 1800 g). For samples not assayed immediately, the plasma was transferred into 96-well plates and frozen at −70° C. Body weights for the animals were determined at the start of the study and again after 14 days oral dosing. Glucose and triglycerides were assayed using standard procedures for blood clinical laboratories. Specifically, the samples were analyzed using an automated Hitachi 717 autoanalyzer (Boehringer Mannheim/Hitachi 717 Autoanalyzer, Boehringer Mannheim Laboratory Systems Division, Indianapolis, Ind.). A statistical analysis of data for the drug-treated groups compared to data for the vehicle group was performed using the one-way analysis of variance (ANOVA) with Dunnett's Multiple Comparisons test. Following the procedure described above, the effect of topiramate on plasma glucose, triglyceride levels and body weight changes was determined for male Zucker rats, orally dosed for 14 days, with results as listed in Table 6–8. The abbreviation N represents the number of animals per study group.

[3] = 30 mg/kg oral once a day, 14 days
[4] = 100 mg/kg oral once a day, 14 days
[5] = 100 mg/kg oral once a day, 14 days, P < 0.01
[6] = 300 mg/kg oral once a day, 14 days
[7] = 300 mg/kg oral once a day, 14 days, P < 0.01

`CC1(C)O[C@@H]2[C@@H](CO[C@@]3(COS(N)(=O)=O)OC(C)(C)O[C@@H]23)O1` [Topiramate, 2,3:4,5-bis-O-(1-methylethylidene)-β-D-fructopyranose sulfamate] gave an Oral Glucose Tolerance Test (fasted) Plasma Glucose ([1]; 30 mg/kg/day, 0 min (before glucose 2 g/kg)) of 188 ± 16.7 mg/dL, an Oral Glucose Tolerance Test (fasted) Plasma Glucose ([1]; 30 mg/kg/day, 30 min after glucose 2 g/kg) of 401 ± 68.4 mg/dL and an Oral Glucose Tolerance Test (fasted) Plasma Glucose ([1]; 30 mg/kg/day, 60 min after glucose 2 g/kg) of 295 ± 31.5 mg/dL. It also gave an Oral Glucose Tolerance Test (fasted) Plasma Glucose ([1]; 30 mg/kg/day, 120 min after glucose 2 g/kg) of 124 ± 20 mg/dL, an Oral Glucose Tolerance Test (fasted) Plasma Glucose ([1]; 100 mg/kg/day, 0 min (before glucose 2 g/kg)) of 160 ± 12.8 mg/dL and an Oral Glucose Tolerance Test (fasted) Plasma Glucose ([1]; 100 mg/kg/day, 30 min after glucose 2 g/kg) of 454 ± 38.5 mg/dL. For the same molecule, the Oral Glucose Tolerance Test (fasted) Plasma Glucose ([1]; 100 mg/kg/day, 60 min after glucose 2 g/kg) was 271 ± 52.6 mg/dL, the Oral Glucose Tolerance Test (fasted) Plasma Glucose ([1]; 100 mg/kg/day, 120 min after glucose 2 g/kg) was 184 ± 32.3 mg/dL and the “elevated blood glucose levels induced by oral glucose challenge” value ([1]; 30 or 100 mg/kg/day) was “suppressed”. For the same molecule, the fasting glucose levels ([1]; 30 or 100 mg/kg/day) was “decreased”, the “Plasma Glucose % Change from Diabetic Control” value (“Plasma Glucose % Change” for short) [2, 3] was −24.9% and the “Plasma Glucose % of Diabetic Control” value [2, 3] was 75.1%. For the same molecule, the “Plasma Triglyceride % Change from Diabetic Control” value (“Plasma Triglyceride % Change” below) [2, 3] was −20.4%, the “Plasma Triglyceride % of Diabetic Control” value [2, 3] was 79.6% and the “Body Weight Change” value [2, 3] was “+95.5 ± 7.2 Gms”. The “Plasma Glucose Levels Plasma Conc.” value ([2]; 30 mg/kg oral once a day, 14 days, P < 0.01) was 247.4 ± 17.8 mg/dL, the “Plasma Triglyceride Levels Plasma Conc.” value ([2]; 30 mg/kg oral once a day, 14 days, P < 0.05) was 482.4 ± 10.5 mg/dL and the “body weight change accompanying the reduction in blood glucose” value ([2]; 30 mg/kg/day) was “without significant body weight change”. For the same molecule, the “decrease in plasma triglyceride levels” value ([2]; 30 mg/kg/day, P<0.05) was 20%, the “Plasma Glucose % Change” value [2, 4] was −47.5% and the “Plasma Glucose % of Diabetic Control” value [2, 4] was 52.5%. The “Plasma Triglyceride % Change” value [2, 4] was −17.7%, the “Plasma Triglyceride % of Diabetic Control” value [2, 4] was 82.3% and the “Plasma Triglyceride Levels Plasma Conc.” value [2, 4] was 498.6 ± 58.8 mg/dL. The “Body Weight Change” value [2, 5] was “+75.7 ± 2.7 (P < 0.01) Gms”, the “Plasma Glucose Levels Plasma Conc.” value [2, 5] was 170.3 ± 14.7 mg/dL and the “Plasma Glucose % Change” value [2, 6] was −49.5%. The “Plasma Glucose % of Diabetic Control” value [2, 6] was 50.5%, the “Plasma Triglyceride % Change” value [2, 6] was −30.2% and the “Plasma Triglyceride % of Diabetic Control” value [2, 6] was 69.8%. The “Body Weight Change” value [2, 7] was “+64.4 ± 6.0 (P < 0.01) Gms”, the “Plasma Glucose Levels Plasma Conc.” value [2, 7] was 166.4 ± 11.1 mg/dL and the “Plasma Triglyceride Levels Plasma Conc.” value [2, 7] was 423.0 ± 33.6 mg/dL. For the same molecule, the “decrease in plasma triglyceride levels” value ([2]; 300 mg/kg/day, P<0.01) was 30% and the “decrease in blood glucose levels” value ([2]; 30 to 300 mg/kg, 14 days, P<0.01) was 25–50%.
